Data set [1] deals with G4-Apt (DNA, G4) AGGGACGGGACCGTCTTCCAGACAAGAGTGCAGGGAGGGACGGGA
The data set is described as follows: biolayer interferometry (Octet RED96). To be noted: binding buffer (composition not given), 25 °C. A general note: BLI is a label-free optical method that tracks binding on a fibre tip over time.

Data set [2] relates to anti-VEGF165 aptamer (DNA, aptamer) CCGTCTTCCAGACAAGAGTGCAGGG
Briefly: biolayer interferometry (Octet RED96). Particulars: binding buffer (composition not given), 25 °C.

The target in another data set is VEGF165 (human, UniProt P15692-4 27-191). Briefly: BLI; BLI (Octet RED96), 25 C, 1000 rpm, 200 uL binding buffer (composition not given), VEGF165 6.25-100 nM, BSA blank as reference. Particulars: protein: commercial, chain copies: 2.

Three molecules from PMC8636943 can be followed below.

In general, Kd refers to the concentration at which binding is half-saturated. Read a high Kd as weaker binding.

Chain of VEGF165 (P15692 other isoform, or with tags, fused parts or gaps): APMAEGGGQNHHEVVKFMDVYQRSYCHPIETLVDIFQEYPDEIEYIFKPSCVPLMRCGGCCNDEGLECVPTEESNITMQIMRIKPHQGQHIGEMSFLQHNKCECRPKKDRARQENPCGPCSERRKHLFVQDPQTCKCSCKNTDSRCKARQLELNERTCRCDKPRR

As to `Cc1ccc2c(c1)sc(-c1ccc(N(C)C)cc1)[n+]2C`, the “K D” value in data set [1] came out at 52900 nM. Besides, in data set [2], the binding entry was “no”.

For the molecule CCGTCTTCCAGACAAGAGTGCAGGG (ssDNA) [anti-VEGF165 aptamer], in the data set with VEGF165 (B-DNA form by CD), the Kd stood at 0.287 nM.

As for AGGGACGGGACCGTCTTCCAGACAAGAGTGCAGGGAGGGACGGGA (structured_DNA) [G4-Apt], the Kd with VEGF165 (largely parallel G-quadruplex by CD) was 0.538 nM.
